Assay results taken from patent US20240158446A1, “CYCLIC COMPOUND HAVING SELECTIVE INHIBITORY ACTION ON KRAS OVER HRAS AND NRAS” (CHUGAI SEIYAKU KABUSHIKI KAISHA, priority 2021, published 2024).

What was measured:
[1] = target: GDP-bound HRAS wild-type protein (Homo sapiens, UniProt P01112); assay: Binding to HRAS by surface plasmon resonance (SPR), Single Cycle Kinetics; details: ratio of KD for GDP-bound HRAS wild-type protein to KD for KRAS, SPR
[2] = system: human lung cancer strain NCI-H441; assay: cells; details: NCI-H441, 96 h, read-out: NCI-H441 IC50 (nM), NCI-H441 cell proliferation, 4 days, CellTiter-Glo;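 also: cell proliferation inhibition after four days measured by CellTiter-Glo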
[3] = target: GDP-bound NRAS wild-type protein (Homo sapiens, UniProt P01111); assay: Binding to NRAS by surface plasmon resonance (SPR), Single Cycle Kinetics; details: ratio of KD for GDP-bound NRAS wild-type protein to KD for KRAS, SPR
Sequence of GDP-bound NRAS wild-type protein (P01111 whole entry): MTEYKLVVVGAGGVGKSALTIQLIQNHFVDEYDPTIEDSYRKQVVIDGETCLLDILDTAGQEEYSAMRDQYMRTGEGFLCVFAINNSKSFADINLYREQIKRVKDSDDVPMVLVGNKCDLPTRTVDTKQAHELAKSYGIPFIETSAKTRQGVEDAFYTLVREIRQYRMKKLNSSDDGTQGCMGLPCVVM

Sequence of GDP-bound HRAS wild-type protein (P01112 whole entry): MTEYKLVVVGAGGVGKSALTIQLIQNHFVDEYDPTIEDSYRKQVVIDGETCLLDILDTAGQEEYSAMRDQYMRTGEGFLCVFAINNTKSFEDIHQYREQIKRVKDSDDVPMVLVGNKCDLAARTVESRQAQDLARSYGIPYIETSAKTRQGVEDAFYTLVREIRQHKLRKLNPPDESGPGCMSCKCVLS

Row | Compound | HRAS/KRAS (KD ratio) [1] | IC50 [2] [nM] | NRAS/KRAS (KD ratio) [3]
1 | CCC[C@H]1C(=O)N[C@@H]([C@@H](C)CC)C(=O)N(C)CC(=O)N(C)[C@H]2C/C=C\CCN(C2=O)[C@@H](Cc2ccc(C)cc2)C(=O)N(C)CC(=O)N[C@@H](CCc2cc(F)c(C(F)(F)F)c(F)c2)C(=O)N2CCC[C@H]2C(=O)N(C)C2(CCC2)C(=O)N(C)[C@@H](C2CCCC2)C(=O)N(C)[C@H](C(=O)N(C)C)CC(=O)N1C [PP1794] | B (a compound having 3 or more and less than 10 is denoted as B) | 8.7 | A (a compound having 10 or more and less than 20 is denoted as A)
2 | CCO[C@@H]1C[C@H]2C(=O)N(C)C3(CCC3)C(=O)N(C)[C@@H](C3CCCC3)C(=O)N(C)[C@H](C(=O)N(C)C)CC(=O)N(C)[C@@H](CC3CC3)C(=O)N[C@@H]([C@@H](C)CC)C(=O)N(C)CC(=O)N(C)[C@H]3C/C=C\CCN(C3=O)[C@@H](Cc3ccc(C)cc3)C(=O)N(C)CC(=O)N[C@@H](CCc3cc(F)c(C(F)(F)F)c(F)c3)C(=O)N2C1 [PP1795] | B (a compound having 3 or more and less than 10 is denoted as B) | 3 | A (a compound having 10 or more and less than 20 is denoted as A)
3 | CC[C@H](C)[C@@H]1NC(=O)[C@H](CC2CC2)N(C)C(=O)C[C@@H](C(=O)N(C)C)N(C)C(=O)[C@H](C2CCCC2)N(C)C(=O)C2(CCC2)N(C)C(=O)[C@@H]2CCCN2C(=O)[C@H](CCc2cc(F)c(C(F)(F)F)c(F)c2)NC(=O)CN(C)C(=O)[C@H](Cc2ccc(C)cc2)N2CC/C=C\C[C@@H](C2=O)N(C)C(=O)CN(C)C1=O [PP1796] | B (a compound having 3 or more and less than 10 is denoted as B) | 5.3 | A (a compound having 10 or more and less than 20 is denoted as A)
4 | CC[C@H](C)[C@@H]1NC(=O)[C@H](CC2CC2)N(C)C(=O)C[C@@H](C(=O)N(C)C)N(C)C(=O)[C@H](C2CCCC2)N(C)C(=O)C2(CCC2)N(C)C(=O)[C@@H]2C[C@@H](C)CN2C(=O)[C@H](CCc2cc(F)c(C(F)(F)F)c(F)c2)NC(=O)CN(C)C(=O)[C@H](Cc2ccc(C)cc2)N2CC/C=C\C[C@@H](C2=O)N(C)C(=O)CN(C)C1=O [PP1800] | A (a compound having 10 or more and less than 20 is denoted as A) | 6.5 | A (a compound having 10 or more and less than 20 is denoted as A)
5 | CC[C@H](C)[C@@H]1NC(=O)[C@H](CC2CC2)N(C)C(=O)C[C@@H](C(=O)N(C)C)N(C)C(=O)[C@H](C2CCCC2)N(C)C(=O)C2(CCC2)N(C)C(=O)[C@@H]2C[C@@H](C)CN2C(=O)[C@H](CCc2cc(F)c(C(F)(F)F)c(F)c2)NC(=O)CN(C)C(=O)[C@H](Cc2ccc(C)cc2)N2CC/C=C\C[C@@H](C2=O)N(C)C(=O)[C@@H]2CCCN2C1=O [PP1801] | B (a compound having 3 or more and less than 10 is denoted as B) | 13 | A (a compound having 10 or more and less than 20 is denoted as A)
6 | CC[C@H](C)[C@@H]1NC(=O)[C@H](CC2CCC2)N(C)C(=O)C[C@@H](C(=O)N(C)C)N(C)C(=O)[C@H](C2CCCC2)N(C)C(=O)C2(CCC2)N(C)C(=O)[C@@H]2C[C@@H](C)CN2C(=O)[C@H](CCc2cc(F)c(C(F)(F)F)c(F)c2)NC(=O)CN(C)C(=O)[C@H](Cc2ccc(C)cc2)N2CC/C=C\C[C@@H](C2=O)N(C)C(=O)CN(C)C1=O [PP1803] | B (a compound having 3 or more and less than 10 is denoted as B) | 7.6 | A (a compound having 10 or more and less than 20 is denoted as A)
7 | CCCN1C(=O)C[C@@H](C(=O)N(C)C)N(C)C(=O)[C@H](C2CCCC2)N(C)C(=O)C2(CCC2)NC(=O)[C@@H]2C[C@@H](OCC)CN2C(=O)[C@H](CCc2cc(F)c(C(F)(F)F)c(F)c2)NC(=O)CN(C)C(=O)[C@H](Cc2ccc(C(F)(F)F)cc2)N2CC/C=C\C[C@@H](C2=O)N(C)C(=O)CN(C)C(=O)[C@H]([C@@H](C)CC)NC(=O)[C@@H]1CC(C)C [PP1825] | A (a compound having 10 or more and less than 20 is denoted as A) | 8 | A (a compound having 10 or more and less than 20 is denoted as A)
8 | CCC[C@H]1C(=O)N[C@@H]([C@@H](C)CC)C(=O)N(C)CC(=O)N(C)[C@H]2C/C=C\CCN(C2=O)[C@@H](Cc2ccc(C)cc2)C(=O)N(C)CC(=O)N[C@@H](CCc2ccc(C(F)(F)F)c(OC)c2)C(=O)N2C[C@@H](C)C[C@H]2C(=O)NC2(CCC2)C(=O)N(C)[C@@H](C2CCCC2)C(=O)N(C)[C@H](C(=O)N(C)CC)CC(=O)N1C [PP1840] | B (a compound having 3 or more and less than 10 is denoted as B) | 26.8 | A (a compound having 10 or more and less than 20 is denoted as A)
9 | CC[C@H](C)[C@@H]1NC(=O)[C@H](CC)N(C)C(=O)C[C@@H](C(=O)N(C)C)N(C)C(=O)[C@H](C2CCCC2)N(C)C(=O)C2(CC(C)(C)C2)NC(=O)[C@@H]2C[C@@H](C)CN2C(=O)[C@H](CCc2ccc(C(F)(F)F)c(Cl)c2)NC(=O)CN(C)C(=O)[C@H](Cc2ccc(C)cc2)N2CC/C=C\C[C@@H](C2=O)N(C)C(=O)CN(C)C1=O [PP1846] | B (a compound having 3 or more and less than 10 is denoted as B) | 9.8 | A (a compound having 10 or more and less than 20 is denoted as A)
10 | CC[C@H](C)[C@@H]1NC(=O)[C@H](CC(C)C)N(C)C(=O)C[C@@H](C(=O)N(CC)CC)N(C)C(=O)[C@H](C2CCCC2)N(C)C(=O)C2(CCC2)NC(=O)[C@@H]2C[C@@H](C)CN2C(=O)[C@H](CCc2ccc(C(F)(F)F)c(OC)c2)NC(=O)CN(C)C(=O)[C@H](Cc2ccc(C)cc2)N2CC/C=C\C[C@@H](C2=O)N(C)C(=O)CN(C)C1=O [PP1849] | A (a compound having 10 or more and less than 20 is denoted as A) | 37.1 | A (a compound having 10 or more and less than 20 is denoted as A)
11 | CC[C@H](C)[C@@H]1NC(=O)[C@H](CC(C)C)N(C)C(=O)C[C@@H](C(=O)N(C)C)N(C)C(=O)[C@H](C2CCCC2)N(C)C(=O)C2(CCC2)NC(=O)[C@@H]2C[C@H](C)CN2C(=O)[C@H](CCc2ccc(C(F)(F)F)c(Cl)c2)NC(=O)CN(C)C(=O)[C@H](Cc2ccc(C)cc2)N2CC/C=C\C[C@@H](C2=O)N(C)C(=O)CN(C)C1=O [PP1852] | B (a compound having 3 or more and less than 10 is denoted as B) | 6 | A (a compound having 10 or more and less than 20 is denoted as A)
12 | CCC[C@H]1C(=O)N[C@@H]([C@@H](C)CC)C(=O)N(C)CC(=O)N(C)[C@H]2C/C=C\CCN(C2=O)[C@@H](Cc2ccc(C)cc2)C(=O)N(C)CC(=O)N[C@@H](CCc2ccc(C(F)(F)F)c(OC)c2)C(=O)N2C[C@@H](C)C[C@H]2C(=O)NC2(CCC2)C(=O)N(C)[C@@H](C2CCCC2)C(=O)N(C)[C@H](C(=O)N(C)C)CC(=O)N1C [PP1857] | B (a compound having 3 or more and less than 10 is denoted as B) | 5 | A (a compound having 10 or more and less than 20 is denoted as A)
13 | CCC[C@H]1C(=O)N[C@@H]([C@@H](C)CC)C(=O)N(C)CC(=O)N(C)[C@H]2C/C=C\CCN(C2=O)[C@@H](Cc2ccc(C)cc2)C(=O)N(C)CC(=O)N[C@@H](CCc2ccc(C(F)(F)F)c(OC)c2)C(=O)N2C[C@H](C)C[C@H]2C(=O)NC2(CCC2)C(=O)N(C)[C@@H](C2CCCC2)C(=O)N(C)[C@H](C(=O)N(C)C)CC(=O)N1C [PP1859] | A (a compound having 10 or more and less than 20 is denoted as A) | 28.8 | A (a compound having 10 or more and less than 20 is denoted as A)
14 | CCC[C@H]1C(=O)N[C@@H]([C@@H](C)CC)C(=O)N(C)CC(=O)N(C)[C@H]2C/C=C\CCN(C2=O)[C@@H](Cc2ccc(C)cc2)C(=O)N(C)CC(=O)N[C@@H](CCc2cc(F)c(C(F)(F)F)c(F)c2)C(=O)N2C[C@@H](C)C[C@H]2C(=O)NC2(CCC2)C(=O)N(C)[C@@H](C2CCCC2)C(=O)N(C)[C@H](C(=O)N(C)CC)CC(=O)N1C [PP1860] | A (a compound having 10 or more and less than 20 is denoted as A) | 10.3 | A (a compound having 10 or more and less than 20 is denoted as A)
15 | CC[C@H](C)[C@@H]1NC(=O)[C@H](CC2CC2)N(C)C(=O)C[C@@H](C(=O)N(C)C)N(C)C(=O)[C@H](C2CCCC2)N(C)C(=O)C2(CCC2)NC(=O)[C@@H]2C[C@H](C)CN2C(=O)[C@H](CCc2ccc(C(F)(F)F)c(OC)c2)NC(=O)CN(C)C(=O)[C@H](Cc2ccc(C)cc2)N2CC/C=C\C[C@@H](C2=O)N(C)C(=O)CN(C)C1=O [PP1861] | B (a compound having 3 or more and less than 10 is denoted as B) | 25.7 | A (a compound having 10 or more and less than 20 is denoted as A)
16 | CCC[C@H]1C(=O)N[C@@H]([C@@H](C)CC)C(=O)N(C)CC(=O)N(C)[C@H]2C/C=C\CCN(C2=O)[C@@H](Cc2ccc(C)cc2)C(=O)N(C)CC(=O)N[C@@H](CCc2cc(F)c(C(F)(F)F)c(F)c2)C(=O)N2C[C@H](C)C[C@H]2C(=O)NC2(CCC2)C(=O)N(C)[C@@H](C2CCCC2)C(=O)N(C)[C@H](C(=O)N(C)CC)CC(=O)N1C [PP1862] | A (a compound having 10 or more and less than 20 is denoted as A) | 22.2 | A (a compound having 10 or more and less than 20 is denoted as A)
